In patent US10766865B2, “PKM2 modulators and methods for their use” (TOLERO PHARMACEUTICALS, INC., priority 2012, dated 2020):

Biological target: PKM2 (Homo sapiens, UniProt P14618)
Assay: PKM2 Biochemical Assay
Conditions: for Max. Resp.: % maximum response in a biochemical assay as compared with Fructose 1,6-bisphosphate
Protocol: Full length, human PKM2 enzyme was obtained from Promab (Richmond, Calif.). All reagents, unless otherwise noted, were obtained from Sigma (St. Louis, Mo.).
Compounds were pre-incubated with 2 nM PKM2 in reaction buffer (50 mM Tris-HCl, pH 8.0, 200 mM KCl, 30 mM MgCl2, 2 mM DTT, 5% DMSO) for 30 min at ambient temperature. […] After 30 min, ATP formation was measured by Kinase Glo (Promega, Madison, Wis.), and AC50 values were determined using Prism (GraphPad Software, Inc., La Jolla, Calif.).

Chain of PKM2 (P14618 whole entry): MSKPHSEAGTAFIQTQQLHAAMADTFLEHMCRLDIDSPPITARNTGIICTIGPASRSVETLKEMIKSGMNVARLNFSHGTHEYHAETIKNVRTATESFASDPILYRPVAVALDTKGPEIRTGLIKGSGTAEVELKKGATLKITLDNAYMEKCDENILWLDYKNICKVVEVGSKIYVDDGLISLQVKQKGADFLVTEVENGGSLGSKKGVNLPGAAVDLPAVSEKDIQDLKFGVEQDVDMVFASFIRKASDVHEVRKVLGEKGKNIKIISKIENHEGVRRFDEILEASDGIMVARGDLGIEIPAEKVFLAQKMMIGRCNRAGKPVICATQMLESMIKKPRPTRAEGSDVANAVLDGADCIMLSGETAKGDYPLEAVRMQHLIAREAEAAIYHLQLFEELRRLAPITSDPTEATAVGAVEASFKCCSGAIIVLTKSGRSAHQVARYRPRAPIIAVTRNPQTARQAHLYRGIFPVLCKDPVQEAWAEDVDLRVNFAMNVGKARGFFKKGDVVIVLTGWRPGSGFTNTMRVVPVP

Max. Resp. [%] | AC50 [nM] | SMILES
68 | – | CCN1CCC(N(Cc2ccccc2F)C(=O)c2cc(C(F)(F)F)n[nH]2)C1 (centres unmarked) [Example 152, N-(2-fluorobenzyl)-N-(1-ethylpyrrolidin-3-yl)-3-(trifluoromethyl)-1H-pyrazole-5-carboxamide]
57 | – | O=C(c1cc(C(F)(F)F)n[nH]1)N(Cc1ccccc1F)C1CCCCC1 [Example 153, N-(2-fluorobenzyl)-N-cyclohexyl-3-(trifluoromethyl)-1H-pyrazole-5-carboxamide]
100 | – | CCN(CC)CCN(Cc1cccc(N)c1)C(=O)c1cc(C(F)(F)F)n[nH]1 [Example 154, N-(3-aminobenzyl)-N-(2-(diethylamino)ethyl)-3-(trifluoromethyl)-1H-pyrazole-5-carboxamide]
100 | – | CCNCCN(Cc1ccccc1F)C(=O)c1cc(C(F)(F)F)n[nH]1 [Example 155, N-(2-fluorobenzyl)-N-(2-(ethylamino)ethyl)-3-(trifluoromethyl)-1H-pyrazole-5-carboxamide]
100 | – | O=C(c1cc(C(F)(F)F)n[nH]1)N(CCN1CCCC1)Cc1ccccc1F [Example 158, N-(2-fluorobenzyl)-3-(trifluoromethyl)-N-(2-(pyrrolidin-1-yl)ethyl)-1H-pyrazole-5-carboxamide]
100 | – | CCN(CC)CCN(Cc1ccccc1Cl)C(=O)c1cc(C(F)(F)F)n[nH]1 [Example 159, N-(2-chlorobenzyl)-N-(2-(diethylamino)ethyl)-3-(trifluoromethyl)-1H-pyrazole-5-carboxamide]
100 | – | CCN(CC)CCN(Cc1cccc2[nH]cnc12)C(=O)c1cc(C(F)(F)F)n[nH]1 [Example 160, N-((1H-benzo[d]imidazol-4-yl)methyl)-N-(2-(diethylamino)ethyl)-3-(trifluoromethyl)-1H-pyrazole-5-carboxamide]
100 | – | CCN(CC)CCN(Cc1cccc2[nH]ccc12)C(=O)c1cc(C(F)(F)F)n[nH]1 [Example 161, N-((1H-indol-4-yl)methyl)-N-(2-(diethylamino)ethyl)-3-(trifluoromethyl)-1H-pyrazole-5-carboxamide]
100 | – | O=C(c1cc(C(F)(F)F)n[nH]1)N(CCN1CCCC1)Cc1ccccc1Cl [Example 162, N-(2-chlorobenzyl)-3-(trifluoromethyl)-N-(2-(pyrrolidin-1-yl)ethyl)-1H-pyrazole-5-carboxamide]
100 | – | O=C(c1cc(C(F)(F)F)n[nH]1)N(CCN1CCCC1)Cc1cccc2nc[nH]c12 [Example 163, N-((1H-benzo[d]imidazol-7-yl)methyl)-3-(trifluoromethyl)-N-(2-(pyrrolidin-1-yl)ethyl)-1H-pyrazole-5-carboxamide]
100 | – | O=C(c1cc(C(F)(F)F)n[nH]1)N(CCN1CCCC1)Cc1cccc2[nH]ccc12 [Example 164, N-((1H-indol-4-yl)methyl)-3-(trifluoromethyl)-N-(2-(pyrrolidin-1-yl)ethyl)-1H-pyrazole-5-carboxamide]
50 | – | O=C(c1cc(C(F)(F)F)n[nH]1)N(CCN1CCCC1)Cc1ccc(Cl)cc1Cl [Example 165, N-(2,4-dichlorobenzyl)-3-(trifluoromethyl)-N-(2-(pyrrolidin-1-yl)ethyl)-1H-pyrazole-5-carboxamide]
100 | – | CCN(CC)CCN(Cc1cccc(Cl)c1Cl)C(=O)c1cc(C(F)(F)F)n[nH]1 [Example 167, N-(2,3-dichlorobenzyl)-N-(2-(diethylamino)ethyl)-3-(trifluoromethyl)-1H-pyrazole-5-carboxamide]
100 | – | CCN(CC)CCN(Cc1cc(Cl)ccc1Cl)C(=O)c1cc(C(F)(F)F)n[nH]1 [Example 168, N-(2,5-dichlorobenzyl)-N-(2-(diethylamino)ethyl)-3-(trifluoromethyl)-1H-pyrazole-5-carboxamide]
100 | – | CCN(CC)CCN(Cc1c(Cl)cccc1Cl)C(=O)c1cc(C(F)(F)F)n[nH]1 [Example 169, N-(2,6-dichlorobenzyl)-N-(2-(diethylamino)ethyl)-3-(trifluoromethyl)-1H-pyrazole-5-carboxamide]
100 | – | CCN(CC)CCN(Cc1ccc(F)cc1Cl)C(=O)c1cc(C(F)(F)F)n[nH]1 [Example 170, N-(2-chloro-4-fluorobenzyl)-N-(2-(diethylamino)ethyl)-3-(trifluoromethyl)-1H-pyrazole-5-carboxamide]
100 | – | CCN(CC)CCN(Cc1cc(F)ccc1Cl)C(=O)c1cc(C(F)(F)F)n[nH]1 [Example 171, N-(2-chloro-5-fluorobenzyl)-N-(2-(diethylamino)ethyl)-3-(trifluoromethyl)-1H-pyrazole-5-carboxamide]
100 | – | CCN(CC)CCN(Cc1ccccc1Cl)C(=O)c1cc(Br)n[nH]1 [Example 175, N-(2-chlorobenzyl)-3-bromo-N-(2-(diethylamino)ethyl)-1H-pyrazole-5-carboxamide]
100 | 1150 | CCN(CC)CCN(Cc1ccccc1Cl)C(=O)c1cc(Cl)n[nH]1 [Example 176, N-(2-chlorobenzyl)-3-chloro-N-(2-(diethylamino)ethyl)-1H-pyrazole-5-carboxamide]

Max. Resp. [%] | AC50 [nM] | SMILES
100 | – | O=C(c1cc(C(F)(F)F)n[nH]1)N(CCN1CCCC1)Cc1c(F)cccc1Cl [Example 177, N-(2-chloro-6-fluorobenzyl)-3-(trifluoromethyl)-N-(2-(pyrrolidin-1-yl)ethyl)-1H-pyrazole-5-carboxamide]
100 | – | O=C(c1cc(C(F)(F)F)n[nH]1)N(CCN1CCCC1)Cc1c(Cl)cccc1Cl [Example 178, N-(2,6-dichlorobenzyl)-3-(trifluoromethyl)-N-(2-(pyrrolidin-1-yl)ethyl)-1H-pyrazole-5-carboxamide]
100 | – | O=C(c1cc(C(F)(F)F)n[nH]1)N(CCN1CCCCC1)Cc1c(F)cccc1Cl [Example 179, N-(2-chloro-6-fluorobenzyl)-3-(trifluoromethyl)-N-(2-(piperidin-1-yl)ethyl)-1H-pyrazole-5-carboxamide]
100 | – | O=C(c1cc(C(F)(F)F)n[nH]1)N(CCN1CCCCC1)Cc1c(Cl)cccc1Cl [Example 180, N-(2,6-dichlorobenzyl)-3-(trifluoromethyl)-N-(2-(piperidin-1-yl)ethyl)-1H-pyrazole-5-carboxamide]
100 | – | CC(CN(Cc1ccccc1Cl)C(=O)c1cc(C(F)(F)F)n[nH]1)N1CCCC1 (centres unmarked) [Example 181, N-(2-chlorobenzyl)-3-(trifluoromethyl)-N-(2-(pyrrolidin-1-yl)propyl)-1H-pyrazole-5-carboxamide]
100 | – | CCN(CC)CCN(Cc1cccc(F)c1Cl)C(=O)c1cc(C(F)(F)F)n[nH]1 [Example 182, N-(2-chloro-3-fluorobenzyl)-N-(2-(diethylamino)ethyl)-3-(trifluoromethyl)-1H-pyrazole-5-carboxamide]
100 | – | CCN(CC)CCN(Cc1cc(N)ccc1Cl)C(=O)c1cc(C(F)(F)F)n[nH]1 [Example 183, N-(5-amino-2-chlorobenzyl)-N-(2-(diethylamino)ethyl)-3-(trifluoromethyl)-1H-pyrazole-5-carboxamide]
85 | – | CCN(CC)CCN(Cc1ccccc1C(C)C)C(=O)c1cc(C(F)(F)F)n[nH]1 [Example 184, N-(2-isopropylbenzyl)-N-(2-(diethylamino)ethyl)-3-(trifluoromethyl)-1H-pyrazole-5-carboxamide]
53 | – | CCN(CC)CCCN(Cc1ccccc1Cl)C(=O)c1cc(C(F)(F)F)n[nH]1 [Example 185, N-(2-chlorobenzyl)-N-(3-(diethylamino)propyl)-3-(trifluoromethyl)-1H-pyrazole-5-carboxamide]
100 | – | CN(C)CCCN(Cc1ccccc1Cl)C(=O)c1cc(C(F)(F)F)n[nH]1 [Example 186, N-(2-chlorobenzyl)-N-(3-(dimethylamino)propyl)-3-(trifluoromethyl)-1H-pyrazole-5-carboxamide]
100 | – | CN(C)CCN(Cc1ccccc1Cl)C(=O)c1cc(C(F)(F)F)n[nH]1 [Example 187, N-(2-chlorobenzyl)-N-(2-(dimethylamino)ethyl)-3-(trifluoromethyl)-1H-pyrazole-5-carboxamide]
60 | – | CC1CC(C)CN(CCN(Cc2ccccc2Cl)C(=O)c2cc(C(F)(F)F)n[nH]2)C1 (centres unmarked) [Example 188, N-(2-chlorobenzyl)-3-(trifluoromethyl)-N-(2-(3,5-dimethylpiperidin-1-yl)ethyl)-1H-pyrazole-5-carboxamide]
100 | – | O=C(c1cc(C(F)(F)F)n[nH]1)N(CCN1CCCCCC1)Cc1ccccc1Cl [Example 189, N-(2-chlorobenzyl)-N-(2-(azepan-1-yl)ethyl)-3-(trifluoromethyl)-1H-pyrazole-5-carboxamide]
100 | – | CC1CCN(CCN(Cc2ccccc2Cl)C(=O)c2cc(C(F)(F)F)n[nH]2)CC1 [Example 190, N-(2-chlorobenzyl)-3-(trifluoromethyl)-N-(2-(4-methylpiperidin-1-yl)ethyl)-1H-pyrazole-5-carboxamide]
100 | – | CC1CCCN(CCN(Cc2ccccc2Cl)C(=O)c2cc(C(F)(F)F)n[nH]2)C1 (centres unmarked) [Example 191, N-(2-chlorobenzyl)-3-(trifluoromethyl)-N-(2-(3-methylpiperidin-1-yl)ethyl)-1H-pyrazole-5-carboxamide]
100 | – | CC1CCCCN1CCN(Cc1ccccc1Cl)C(=O)c1cc(C(F)(F)F)n[nH]1 (centres unmarked) [Example 192, N-(2-chlorobenzyl)-3-(trifluoromethyl)-N-(2-(2-methylpiperidin-1-yl)ethyl)-1H-pyrazole-5-carboxamide]
58 | – | CCN(CC)CCN(Cc1ccccc1Cl)C(=O)c1[nH]nc(Cl)c1F [Example 193, N-(2-chlorobenzyl)-3-chloro-N-(2-(diethylamino)ethyl)-4-fluoro-1H-pyrazole-5-carboxamide]
100 | – | O=C(c1cc(C(F)(F)F)n[nH]1)N(CCN1CCCCCC1)Cc1ccc(O)cc1Cl [Example 194, N-(2-chloro-4-hydroxybenzyl)-N-(2-(azepan-1-yl)ethyl)-3-(trifluoromethyl)-1H-pyrazole-5-carboxamide]
